Source: ChEMBL document CHEMBL4266003, “New Dopamine D3-Selective Receptor Ligands Containing a 6-Methoxy-1,2,3,4-tetrahydroisoquinolin-7-ol Motif” (ACS Med Chem Lett, 2018)
Calls of active or inactive are those of the source. No cut-off for these calls is given here.

Legend:
D(3) dopamine receptor [1] = target: T1, D(3) dopamine receptor (Homo sapiens, UniProt P35462); assay: Displacement of [3H]N-Methylspiperone from human dopamine D3 receptor expressed in HEKT cell membranes
D(2) dopamine receptor [2] = target: T2, D(2) dopamine receptor (Homo sapiens, UniProt P14416); assay: Inhibition of human dopamine D2 receptor expressed in HEKT cell membranes at 10 uM relative to control; type: cell-based
[3] = target: T3, D(4) dopamine receptor (Homo sapiens) (UniProt P21917); assay: Inhibition of human dopamine D4 receptor expressed in HEKT cell membranes at 10 uM relative to control; type: cell-based
T3 sequence (whole entry): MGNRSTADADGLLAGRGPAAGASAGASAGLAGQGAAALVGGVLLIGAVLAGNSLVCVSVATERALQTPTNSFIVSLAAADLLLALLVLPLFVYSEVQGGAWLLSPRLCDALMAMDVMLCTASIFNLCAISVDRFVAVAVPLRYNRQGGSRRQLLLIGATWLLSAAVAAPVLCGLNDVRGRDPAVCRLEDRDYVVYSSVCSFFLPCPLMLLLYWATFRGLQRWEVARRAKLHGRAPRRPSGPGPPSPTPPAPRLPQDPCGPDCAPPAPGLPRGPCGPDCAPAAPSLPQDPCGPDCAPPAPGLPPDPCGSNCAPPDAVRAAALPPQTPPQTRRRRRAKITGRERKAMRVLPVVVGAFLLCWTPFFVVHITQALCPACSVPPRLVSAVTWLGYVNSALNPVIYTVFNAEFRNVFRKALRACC

D(1A) dopamine receptor [4] = target: T4, D(1A) dopamine receptor (Homo sapiens, UniProt P21728); assay: Inhibition of human dopamine D1 receptor expressed in HEKT cell membranes at 10 uM relative to control; type: cell-based
D(1A) dopamine receptor [5] = target: T4, D(1A) dopamine receptor; assay: Displacement of [3H]SCH23390 from human dopamine D1 receptor expressed in HEKT cell membranes
Homo sapiens [6] = species: Homo sapiens; assay: Selectivity ratio of Ki for human dopamine D2 receptor expressed in fibroblasts to Ki for human dopamine D3 receptor expressed in HEKT cell membranes; type: cell-based
D(4) dopamine receptor = target: T5, D(4) dopamine receptor (Homo sapiens, UniProt P21917); assay: Displacement of [3H]N-Methylspiperone from human dopamine D4 receptor expressed in HEK cell membranes
T5 sequence (P21917 whole entry): T3 sequence (whole entry)

D(2) dopamine receptor [7] = target: T2, D(2) dopamine receptor; assay: Displacement of [3H]N-Methylspiperone from human dopamine D2 receptor expressed in fibroblasts
Homo sapiens [8] = species: Homo sapiens; assay: Selectivity ratio of Ki for human dopamine D1 receptor expressed in HEKT cell membranes to Ki for human dopamine D3 receptor expressed in HEKT cell membranes; type: cell-based
D(3) dopamine receptor [9] = target: T1, D(3) dopamine receptor; assay: Agonist activity at human dopamine D3 receptor assessed as beta-arrestin recruitment by Tango assay; type: functional
D(3) dopamine receptor [10] = target: T1, D(3) dopamine receptor; assay: Antagonist activity at human dopamine D3 receptor assessed as inhibition of beta-arrestin recruitment by Tango assay; type: functional

T4 sequence (P21728 whole entry): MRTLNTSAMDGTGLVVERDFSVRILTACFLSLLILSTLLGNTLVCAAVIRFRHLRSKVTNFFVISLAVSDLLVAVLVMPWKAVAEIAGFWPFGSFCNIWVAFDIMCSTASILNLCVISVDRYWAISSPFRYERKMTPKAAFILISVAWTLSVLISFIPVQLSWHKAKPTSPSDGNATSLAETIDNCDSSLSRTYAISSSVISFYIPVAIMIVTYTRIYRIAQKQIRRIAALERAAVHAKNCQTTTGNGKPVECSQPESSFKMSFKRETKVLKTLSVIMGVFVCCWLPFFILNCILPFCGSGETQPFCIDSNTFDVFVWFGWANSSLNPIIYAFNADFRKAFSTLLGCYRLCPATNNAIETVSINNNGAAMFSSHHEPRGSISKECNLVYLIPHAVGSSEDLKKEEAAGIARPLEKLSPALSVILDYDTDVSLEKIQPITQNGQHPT
T2 sequence (P14416 whole entry): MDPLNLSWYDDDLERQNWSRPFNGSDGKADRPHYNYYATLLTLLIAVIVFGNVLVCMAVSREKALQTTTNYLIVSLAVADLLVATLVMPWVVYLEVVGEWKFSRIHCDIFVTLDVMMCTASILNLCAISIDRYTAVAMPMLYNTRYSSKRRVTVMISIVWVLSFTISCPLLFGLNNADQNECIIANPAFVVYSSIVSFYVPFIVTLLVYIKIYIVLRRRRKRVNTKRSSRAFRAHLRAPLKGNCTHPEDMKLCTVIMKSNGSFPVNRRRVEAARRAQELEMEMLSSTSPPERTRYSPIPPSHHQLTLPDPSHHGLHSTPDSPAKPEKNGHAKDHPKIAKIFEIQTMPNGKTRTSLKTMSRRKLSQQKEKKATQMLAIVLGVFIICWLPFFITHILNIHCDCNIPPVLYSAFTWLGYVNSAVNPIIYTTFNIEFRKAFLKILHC
T1 sequence (P35462 whole entry): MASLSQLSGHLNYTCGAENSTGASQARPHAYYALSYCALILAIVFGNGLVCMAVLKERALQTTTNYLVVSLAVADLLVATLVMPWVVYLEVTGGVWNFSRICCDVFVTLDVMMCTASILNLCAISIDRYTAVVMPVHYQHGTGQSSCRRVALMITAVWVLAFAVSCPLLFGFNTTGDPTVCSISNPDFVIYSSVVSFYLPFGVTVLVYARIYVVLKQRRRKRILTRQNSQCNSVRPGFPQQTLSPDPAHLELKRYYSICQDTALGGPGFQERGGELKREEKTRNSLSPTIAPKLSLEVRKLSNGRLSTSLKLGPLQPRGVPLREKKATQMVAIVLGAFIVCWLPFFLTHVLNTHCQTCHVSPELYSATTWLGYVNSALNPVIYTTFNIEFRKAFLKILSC

Row | Structure (SMILES) | Ki (D(3) dopamine receptor [1]) | inhibition (D(2) dopamine receptor [2]) | inhibition [3] | inhibition (D(1A) dopamine receptor [4]) | Ki (D(1A) dopamine receptor [5]) | Ki (D(4) dopamine receptor) | Ki (D(2) dopamine receptor [7]) | Activity (D(3) dopamine receptor [9]) | EC50 (D(3) dopamine receptor [10]) | Ratio Ki (Homo sapiens [6]) | Ratio Ki (Homo sapiens [8])
1 | COc1cc2c(cc1OC)CN(CCCCNC(=O)c1ccc(C#N)cc1)CC2 | 0.41 µM | < 50% | < 50% | < 50% | – | – | – | – | – | – | –
2 | COc1cc2c(cc1O)CN(CCCCNC(=O)c1ccc3ccccc3c1)CC2 | 0.0027 µM | – | – | – | 0.8 µM | 0.17 µM | 0.7 µM | – | – | 260 | 296
3 | COc1cccc(C(=O)NCCCCN2CCc3cc(OC)c(O)cc3C2)c1 | 0.012 µM | < 50% | – | < 50% | – | 0.15 µM | – | – | – | – | –
4 | COc1cc2c(cc1O)CN(CCCCNC(=O)c1ccc(-c3ccccc3)cc1)CC2 | 0.0027 µM | – | – | – | 0.8 µM | 0.72 µM | 0.8 µM | – | – | 296 | 296
5 | COc1cc2c(cc1O)CN(CCCCNC(=O)c1ccc(C(N)=O)cc1)CC2 | 0.028 µM | – | < 50% | < 50% | – | – | 0.86 µM | – | – | 31 | –
6 | COc1cc2c(cc1O)CN(CCCCNC(=O)c1ccc(C#N)cc1)CC2 | 0.0063 µM | < 50% | < 50% | < 50% | – | – | – | inactive | 1.4 µM | – | –
7 | COc1cc2c(cc1O)CN(CCCCNC(=O)c1ccnc3ccccc13)CC2 | 0.022 µM | < 50% | – | – | 1.81 µM | 0.41 µM | – | – | – | – | 82
8 | COc1ccc(C(=O)NCCCCN2CCc3cc(OC)c(O)cc3C2)cc1 | 0.0059 µM | < 50% | – | < 50% | – | 0.56 µM | – | inactive | 0.36 µM | – | –
9 | COc1cc2c(cc1O)CN(CCCCNC(=O)c1ccncc1)CC2 | 0.024 µM | < 50% | – | < 50% | – | 1.4 µM | – | – | – | – | –

More lines, main results first:

Row | Ki (D(3) dopamine receptor [1]) | inhibition (D(2) dopamine receptor [2]) | inhibition [3] | inhibition (D(1A) dopamine receptor [4]) | Ki (D(1A) dopamine receptor [5]) | Ki (D(4) dopamine receptor) | Ki (D(2) dopamine receptor [7]) | Activity (D(3) dopamine receptor [9]) | EC50 (D(3) dopamine receptor [10]) | Structure (SMILES) | Ratio Ki (Homo sapiens [6]) | Ratio Ki (Homo sapiens [8])
10 | 0.01 µM | < 50% | – | – | 1.6 µM | 1.5 µM | – | – | – | COc1cc2c(cc1O)CN(CCCCNC(=O)c1ccc(I)cc1)CC2 | – | 160
11 | 0.0044 µM | < 50% | – | < 50% | – | 0.095 µM | – | inactive | 0.49 µM | COc1cc2c(cc1O)CN(CCCCNC(=O)c1ccc(F)cc1)CC2 | – | –
12 | 0.0034 µM | – | – | – | 0.5 µM | 0.35 µM | > 10 µM | – | – | COc1cc2c(cc1O)CN(CCCCNC(=O)c1ccc(Br)cc1)CC2 | > 2940 | 147
13 | 0.0087 µM | < 50% | – | < 50% | – | 0.66 µM | – | inactive | 0.42 µM | COc1cc2c(cc1O)CN(CCCCNC(=O)c1ccc(O)cc1)CC2 | – | –
14 | 0.0021 µM | – | – | – | 0.68 µM | 0.14 µM | 1.1 µM | – | – | COc1cc2c(cc1O)CN(CCCCNC(=O)c1ccc(Cl)cc1)CC2 | 524 | 323
